Tested on: auricle of hairless mouse
Experiment: Measurement of external blood circulation enhancing action: vasodilatory effect (red spots) after application to the ear
Format: in vivo, hairless mouse (HR-1, female)
Design: key to Vasodilatory effect for hairless mouse (red spots) / Vasodilatory effect on hairless mouse (red spots): O: clear red spots is confirmed; Δ: weak red spots is confirmed; x: no development of red spots
Settings: for Vasodilatory effect on hairless mouse (red spots) / red spots observed (note, words) / red spots almost disappeared at / weak red spots were observed at, time after application / red spots were observed at, time after application / red spots at 1 hr after application: 5 wt % (ethanol); for vasodilatory / blood circulation enhancing effect, summary in words: summary of Tables 2 to 4; for red spots at 1 hr after application: 1 hr later
Text: The compound of each Example, capsinoid derivative and capsaicin were compared for vasodilatory effect using auricle of hairless mouse. A sample was applied to the right ear of hairless mouse (HR-1, female), and a control was applied to the left ear. […]

[1] = 5 wt % (liquid paraffin) as printed, second column of Table 2
[2] = 5 wt % (liquid paraffin), first column of Table 2
[3] = application of 5 wt % in liquid paraffin

Structure (SMILES) | Vasodilatory effect for hairless mouse (red spots) (0.005 wt % (ethanol)) | Vasodilatory effect for hairless mouse (red spots) (0.05 wt % (ethanol)) | Vasodilatory effect for hairless mouse (red spots) (0.5 wt % (ethanol)) | Vasodilatory effect on hairless mouse (red spots) | red spots observed (note, words) | Vasodilatory effect for hairless mouse (red spots) [1] | Vasodilatory effect for hairless mouse (red spots) [2] | red spots were observed even after lapse of (application of 1 wt % in liquid paraffin) | weak red spots were observed even after lapse of [3] | blood circulation enhancing effect (note, words) [3] | red spots almost disappeared at | weak red spots were observed at, time after application | red spots disappeared in [3] | vasodilatory / blood circulation enhancing effect, summary in words | red spots were observed even after lapse of [3] | red spots were observed at, time after application | red spots at 1 hr after application
COc1cc(CNC(=O)CCCC/C=C/C(C)C)ccc1O [capsaicin, reference compound] | Δ | ∘ | ∘ | ∘ | Strong red spots were observed. | ∘ | ∘ | lapse of 2 hr | – | – | – | – | – | – | – | – | –
COc1cc(COC(=O)CCCC/C=C/C(C)C)ccc1O [capsiate, 4-hydroxy-3-methoxybenzyl (E)-8-methyl-6-nonenoate, reference compound] | – | – | – | ∘ | Clear red spots were observed. | Δ | ∘ | – | lapse of 90 min | – | – | – | – | – | – | – | –
COc1cc(CCCOC(=O)CCCCCCC(C)C)ccc1O [compound J, 3-(3-methoxy-4-hydroxyphenyl)propyl 8-methylnonanoate] | – | – | – | x | – | – | x | – | – | Application of 5 wt %: no blood | – | – | – | – | – | – | –
COc1cc(CCCOC(=O)CCCCCC(C)C)ccc1O [compound J-1, 3-(3-methoxy-4-hydroxyphenyl)propyl 7-methyloctanoate] | – | – | – | ∘ | – | x | Δ | – | – | – | almost disappeared at 30 min later. | Weak red spots were observed at 10 min | spots disappeared in 1 hr | weak blood circulation enhancing effect | – | – | –
COc1cc(CCCOC(=O)CCCCC(C)C)ccc1O [compound J-2, 3-(3-methoxy-4-hydroxyphenyl)propyl 6-methylheptanoate] | – | – | – | ∘ | – | x | Δ | – | – | – | almost disappeared at 30 min later. | Weak red spots were observed at 10 min | spots disappeared in 1 hr | weak blood circulation enhancing effect | – | – | –
COc1cc(CCCOC(=O)CCCC(C)C)ccc1O [compound J-3, 3-(3-methoxy-4-hydroxyphenyl)propyl 5-methylhexanoate] | – | – | – | ∘ | – | x | Δ | – | – | – | almost disappeared at 30 min later. | Weak red spots were observed at 10 min | spots disappeared in 1 hr | weak blood circulation enhancing effect | – | – | –
COc1cc(CCCOC(=O)CCC(C)C)ccc1O [compound J-4, 3-(3-methoxy-4-hydroxyphenyl)propyl 4-methylpentanoate] | – | – | – | ∘ | – | x | Δ | – | – | – | almost disappeared at 30 min later. | Weak red spots were observed at 10 min | spots disappeared in 1 hr | weak blood circulation enhancing effect | – | – | –
CCCCCC(=O)OCCCc1ccc(O)c(OC)c1 [compound J-5, 3-(3-methoxy-4-hydroxyphenyl)propyl n-hexanoate] | – | – | – | Δ | – | x | Δ | – | – | – | almost disappeared at 30 min later. | Weak red spots were observed at 10 min | spots disappeared in 1 hr | weak blood circulation enhancing effect | – | – | –
COc1cc(CC(=O)OCCCCCCCC(C)C)ccc1O [compound K, 8-methylnonyl homovanillate] | – | – | – | – | – | – | ∘ | – | lapse of 2 hr | – | – | – | – | potent vasodilatory effect | – | – | –
COc1cc(CC(=O)OCCCCCCC(C)C)ccc1O [compound K-1, 7-methyloctyl homovanillate] | Δ | ∘ | ∘ | – | – | ∘ | ∘ | – | – | – | – | – | – | potent vasodilatory effect | lapse of 90 min | – | –
CC[C@H](C)CCCCCOC(=O)Cc1ccc(O)c(OC)c1 [compound K-2, (S)-(+)-6-methyloctyl homovanillate] | Δ | ∘ | ∘ | – | – | ∘ | ∘ | – | – | – | – | – | – | potent vasodilatory effect | lapse of 90 min | – | –
COc1cc(CC(=O)OCCCCCC(C)C)ccc1O [compound K-3, 6-methylheptyl homovanillate] | Δ | ∘ | ∘ | – | – | ∘ | ∘ | – | – | – | – | – | – | potent vasodilatory effect | lapse of 90 min | – | –
COc1cc(CCC(=O)OCCCCCCCC(C)C)ccc1O [compound L, 8-methylnonyl 3-(4-hydroxy-3-methoxyphenyl)propionate] | – | – | – | – | – | – | ∘ | – | – | – | – | – | – | potent vasodilatory effect | lapse of 90 min | – | –
COc1cc(CCC(=O)OCCCCCCC(C)C)ccc1O [compound L-1, 7-methyloctyl 3-(4-hydroxy-3-methoxyphenyl)propionate] | – | – | – | ∘ | – | Δ | ∘ | – | – | – | – | – | spots disappeared in 1 hr | potent vasodilatory effect | – | Red spots were observed at 5 min | thin red spots remained. L-4 showed
COc1cc(CCC(=O)OCCCCCC(C)C)ccc1O [compound L-2, 6-methylheptyl 3-(4-hydroxy-3-methoxyphenyl)propionate] | – | – | – | ∘ | – | Δ | ∘ | – | – | – | – | – | spots disappeared in 1 hr | potent vasodilatory effect | – | Red spots were observed at 5 min | thin red spots remained. L-4 showed
COc1cc(CCC(=O)OCCCCC(C)C)ccc1O [compound L-3, 5-methylhexyl 3-(4-hydroxy-3-methoxyphenyl)propionate] | – | – | – | ∘ | – | Δ | ∘ | – | – | – | – | – | spots disappeared in 1 hr | potent vasodilatory effect | – | Red spots were observed at 5 min | thin red spots remained. L-4 showed
CC[C@H](C)CCCCCOC(=O)CCc1ccc(O)c(OC)c1 [compound L-4, (S)-(+)-6-methyloctyl 3-(4-hydroxy-3-methoxyphenyl)propionate] | – | – | – | ∘ | – | ∘ | ∘ | – | lapse of 1 hr | – | – | – | – | potent vasodilatory effect | – | Red spots were observed at 5 min | strong red spots after 1 hr.
